Patent US10752616B2, “Bicycloheteroaryl-heteroaryl-benzoic acid compounds as retinoic acid receptor beta (RARβ) agonists” (King's College London, priority 2014, dated 2020)

How the values were obtained:
Format in all cases: cell-based
RARβ = RARβ (Mus musculus (Mouse), UniProt P22605); test: Transactivation assay for RARβ (gal4-RAR fusion, pFR-luc reporter, COS-7 cells), Table 2; conditions: COS-7 reporter, mean of three or more determinations, species not stated (method: mouse or human)
Description: (§1) Transcriptional transactivation assays were performed with gal4 fusion receptor constructs, created using each of the RAR ligand binding domains of either mouse or human, co-transfected with the pFR-luc (Stratagene) reporter construct in COS-7 cells.
(§2) Briefly, on day 1, 96 well plates were seeded with 8000 cells per well then left to recover overnight. On day 2, the cells were co-transfected with 100 ng of reporter plasmid and 10 ng of the appropriate receptor plasmid per well using lipofectamine (Invitrogen). On day 3, the lipofectamine containing media was replaced by a DMEM without phenol red, followed by the addition of test compound dissolved in 1 μL of DMSO to each well's 100 μL total volume. Finally, on day 4, the cells were lysed and their luciferase substrate was provided by the BrightGlo™ reagent (Promega), the plates were then read on the MicroBeta TriLux™ (Perkin Elmer).
(§3) Data for test compounds are quoted as EC50 values. Where replicate data has been generated, the data are quoted as the mean EC50 from the separate experiments.
(§4) EC50's values are reported as mean values of three or more determinations.

RARα = RARα (Mus musculus (Mouse), UniProt P11416); test: Transactivation assay for RARα (gal4-RAR fusion, pFR-luc reporter, COS-7 cells), Table 2; conditions: for EC50: Table 2, COS-7 reporter, mean of three or more determinations, inactive = no agonist action at highest concentration tested; for RARα/RARβ ratio: fold-selectivity for RARβ over RARα, >1 = selective for RARβ
Description: as §1, §2, §3, §4

RARγ = RARγ (Mus musculus (Mouse), UniProt P18911); test: Transactivation assay for RARγ (gal4-RAR fusion, pFR-luc reporter, COS-7 cells), Table 2; conditions: for EC50: Table 2, COS-7 reporter, mean of three or more determinations, inactive = no agonist action at highest concentration tested; for RARγ/RARβ ratio: fold-selectivity for RARβ over RARγ, >1 = selective for RARβ
Description: as §1, §2, §3, §4

RARα, sequence (P11416 183-417): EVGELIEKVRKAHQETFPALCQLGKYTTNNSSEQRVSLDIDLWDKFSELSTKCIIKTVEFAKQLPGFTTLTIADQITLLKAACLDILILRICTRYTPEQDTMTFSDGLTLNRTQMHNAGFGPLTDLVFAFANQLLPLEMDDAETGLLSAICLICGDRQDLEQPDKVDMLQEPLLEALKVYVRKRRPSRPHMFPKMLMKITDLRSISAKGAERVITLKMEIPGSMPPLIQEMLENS
RARβ, sequence (P22605 210-444): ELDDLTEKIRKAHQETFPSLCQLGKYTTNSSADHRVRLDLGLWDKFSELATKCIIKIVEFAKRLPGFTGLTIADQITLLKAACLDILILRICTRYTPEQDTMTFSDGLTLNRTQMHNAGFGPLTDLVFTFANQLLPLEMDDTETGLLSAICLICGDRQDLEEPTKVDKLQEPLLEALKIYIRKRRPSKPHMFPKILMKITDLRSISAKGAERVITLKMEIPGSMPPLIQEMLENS
RARγ, sequence (P18911 185-419): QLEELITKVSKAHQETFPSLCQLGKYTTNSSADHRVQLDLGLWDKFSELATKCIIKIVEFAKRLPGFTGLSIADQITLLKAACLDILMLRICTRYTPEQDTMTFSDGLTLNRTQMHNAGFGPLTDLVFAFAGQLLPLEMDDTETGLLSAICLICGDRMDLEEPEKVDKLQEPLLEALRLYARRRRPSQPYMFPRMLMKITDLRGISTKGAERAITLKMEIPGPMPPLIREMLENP

SMILES | EC50 (RARβ) [nM] | EC50 (RARα) [nM] | EC50 (RARγ) [nM] | RARα/RARβ ratio (RARα) | RARγ/RARβ ratio (RARγ)
Cc1ccc(C)c2oc(-c3nc(-c4ccc(C(=O)O)c(F)c4)no3)nc12 [BHBA-026, 4-(5-(4,7-Dimethylbenzo[d]oxazol-2-yl)-1,2,4-oxadiazol-3-yl)-2-fluorobenzoic acid] | 13 | 47 | 77 | – | –
Cc1ccc(C)c2sc(-c3nc(-c4ccc(C(=O)O)cc4)no3)nc12 [BHBA-027, 4-(5-(4,7-Dimethylbenzo[d]thiazol-2-yl)-1,2,4-oxadiazol-3-yl)benzoic acid] | 9 | 61 | 25 | 6.7 | 2.7
Cc1ccc(C)c2oc(-c3noc(-c4ccc(C(=O)O)cc4)n3)cc12 [BHBA-028, 4-(3-(4,7-Dimethylbenzofuran-2-yl)-1,2,4-oxadiazol-5-yl)benzoic acid] | 8.2 | 26 | 8.3 | 3 | 1
Cc1cc(C(=O)O)ccc1-c1nc(-c2cc3c(C)ccc(C)c3o2)no1 [BHBA-029, 4-(3-(4,7-Dimethylbenzofuran-2-yl)-1,2,4-oxadiazol-5-yl)-3-methylbenzoic acid] | 14 | 210 | 19 | 15 | 1.3
Cc1ccc(C)c2oc(-c3noc(-c4ccc(C(=O)O)cc4F)n3)cc12 [BHBA-030, 4-(3-(4,7-Dimethylbenzofuran-2-yl)-1,2,4-oxadiazol-5-yl)-3-fluorobenzoic acid] | 10 | 58 | 18 | 5.8 | 1.8
Cc1ccc(C)c2oc(-c3noc(-c4ccc(C(=O)O)cc4Cl)n3)cc12 [BHBA-031, 3-Chloro-4-(3-(4,7-dimethylbenzofuran-2-yl)-1,2,4-oxadiazol-5-yl)benzoic acid] | 17 | 150 | 42 | 8.8 | 2.5
Cc1cc(-c2nc(-c3cc4c(C)ccc(C)c4o3)no2)ccc1C(=O)O [BHBA-032, 4-(3-(4,7-Dimethylbenzofuran-2-yl)-1,2,4-oxadiazol-5-yl)-2-methylbenzoic acid] | 8.1 | 150 | 22 | 18.5 | 2.7
Cc1ccc(C)c2oc(-c3noc(-c4ccc(C(=O)O)c(F)c4)n3)cc12 [BHBA-033, 4-(3-(4,7-Dimethylbenzofuran-2-yl)-1,2,4-oxadiazol-5-yl)-2-fluorobenzoic acid] | 13 | 45 | 23 | 3.5 | 1.8
Cc1ccc(C)c2oc(-c3nnc(-c4ccc(C(=O)O)cc4)o3)cc12 [BHBA-034, 4-(5-(4,7-Dimethylbenzofuran-2-yl)-1,3,4-oxadiazol-2-yl)benzoic acid] | 20 | 92 | 58 | 4.6 | 2.9
Cc1cc(C(=O)O)ccc1-c1nnc(-c2cc3c(C)ccc(C)c3o2)o1 [BHBA-035, 4-(5-(4,7-Dimethylbenzofuran-2-yl)-1,3,4-oxadiazol-2-yl)-3-methylbenzoic acid] | 67 | 91 | 83 | 1.3 | 1.2
Cc1ccc(C)c2oc(-c3nnc(-c4ccc(C(=O)O)cc4Cl)o3)cc12 [BHBA-036, 3-Chloro-4-(5-(4,7-dimethylbenzofuran-2-yl)-1,3,4-oxadiazol-2-yl)benzoic acid] | 28 | 225 | 58 | 8 | 2.1
Cc1ccc(C)c2oc(-c3nnc(-c4ccc(C(=O)O)c(F)c4)o3)cc12 [BHBA-037, 4-(5-(4,7-Dimethylbenzofuran-2-yl)-1,3,4-oxadiazol-2-yl)-2-fluorobenzoic acid] | 45 | 91 | 60 | 2 | 1.3
